In one experiment the test system is A549 cells. Description: in vitro antiproliferation assay, A549 (lung). It counts as cell-based. The note with it: A549 (lung) cells, antiproliferation. The protocol:
The IC50 values of various compounds against a various different tumor cell lines were determined using standard in vitro antiproliferation assays. The tumor cell lines tested were as follows: A549 (lung); H1299 (lung), ACHN (kidney/p53 wt), CAKI (renal cell carcinoma), NCI-H460 (lung); HCT116 (colon/p53w0; HELA (cervix/p53 wt), HUH7 (liver/p53 wt), HUVEC (primary endothelial), LNCAP (prostate), HT-29 (colon); MCF-7 (breast); MCF-7 (breast/ER positive), MDA MB435S (breast); MDA MB231 (breast/ER negative), DU145 (prostate); BxPC-3 (pancreatic); SKOV-3 (ovarian); HepG2 (hepatic), NDHF primary normal human dermal fibroblast), SKMEL28 (breast/p53mut), SKMEL5 (breast/p53 wt), U20S (bone) and PC3 (prostate). […] A blank indicates the specified compound was not tested against the specified cell line.
`Oc1ccc(Nc2ncc(F)c(Nc3ccc(O)c(C(F)(F)F)c3)n2)cc1C(F)(F)F` [compound 996] registered an IC50 of less than 20 µM.
Same read-out and setting: next, `CC(C)(C)c1cccc(Nc2ncc(F)c(Nc3cccc(O)c3)n2)c1` [compound 951]: more than 20 µM; `Oc1c(Cl)cc(Nc2ncc(F)c(Nc3cc(Cl)c(O)c(Cl)c3)n2)cc1Cl` [compound 941]: more than 20 µM; `OCCOc1cccc(Nc2ncc(F)c(Nc3ccc(CO)c(CO)c3)n2)c1` [compound 967]: more than 20 µM.
On to `CCOc1cccc(Nc2ncc(F)c(Nc3cccc(C(C)C)c3)n2)c1` [compound 964], for which the IC50 is more than 20 µM.
The same measure, in the same setting: then `COC(=O)COc1ccc(Nc2ncc(F)c(Nc3ccc(C(C)C)cc3)n2)cc1` [compound 936], with more than 20 µM.
Same read-out and setting: next, `CC(C)c1ccc(Nc2nc(Nc3ccc(OCCO)cc3)ncc2F)cc1` [compound 937]: not above 20 µM; `OCCOc1ccc(Nc2ncc(F)c(Nc3cccc(O)c3)n2)cc1` [compound 934]: not above 20 µM.
On to `COC(=O)COc1ccc(Nc2nc(Nc3ccc(OCC(N)=O)cc3)ncc2F)cc1` [compound 973], for which the IC50 is more than 20 µM.
Same read-out and setting: then `CC(C)c1ccc(Nc2nc(Nc3cccc(OCCO)c3)ncc2F)cc1` [compound 935], with more than 20 µM; and `Cc1cc(Nc2ncc(F)c(Nc3cccc(O)c3)n2)cc(Cl)c1O` [compound 943], with not above 20 µM; and `COC(=O)COc1cccc(Nc2ncc(F)c(Nc3ccc(OC(C)C)cc3)n2)c1` [compound 977], with more than 20 µM.
Still for that read-out and setting: next, `COc1ccc(Nc2nc(Nc3cccc(C(C)(C)C)c3)ncc2F)cc1OC` [compound 953]: more than 20 µM.
Same read-out and setting: then `Cc1ccc(Nc2ncc(F)c(Nc3ccc(C)cc3)n2)cc1` [compound 998], with more than 20 µM; and `COC(=O)COc1cccc(Nc2ncc(F)c(Nc3cccc(O)c3)n2)c1` [compound 976], with more than 20 µM.
Consider `CNC(=O)COc1cccc(Nc2ncc(F)c(Nc3ccc(OCCC(=O)OC)cc3)n2)c1` [compound 1002], for which the half-maximal inhibitory concentration (IC50) is more than 20 µM.
The same measure, in the same setting: next, `CNC(=O)COc1cccc(Nc2ncc(F)c(Nc3cccc(C(C)C)c3)n2)c1` [compound 965]: more than 20 µM.
The same measure, in the same setting: next, `Cc1cccc(Nc2ncc(F)c(Nc3cccc(C)c3)n2)c1` [compound 997]: not above 20 µM; `NC(=O)COc1ccc(Nc2ncc(F)c(Nc3ccc(OCC(N)=O)cc3)n2)cc1` [compound 971]: more than 20 µM; `CC(C)c1cccc(Nc2nc(Nc3cccc(OCCO)c3)ncc2F)c1` [compound 966]: not above 20 µM.

Still in this experiment, the particulars now being: A549 (lung) cells, in vitro antiproliferation.
On to `COc1cc(Nc2ncc(F)c(Nc3cc(OC)c(OC)c(OC)c3)n2)cc(OC)c1OC` [compound 743], for which the concentration for half-maximal inhibition (IC50) is more than 20 µM.
With `CN(C)CCOc1ccc(Nc2ncc(F)c(Nc3cccc(O)c3)n2)cc1` [compound 693], the IC50 was not above 20 µM.
Consider `O=C(O)COc1ccc(Nc2ncc(F)c(Nc3cccc(Cl)c3)n2)cc1` [compound 736], for which the IC50 was more than 20 µM.
Still for that read-out and setting: then `Oc1cccc(Nc2nc(Nc3ccc(OCCN4CCOCC4)cc3)ncc2F)c1` [compound 744], with not above 20 µM.
Regarding `COc1ccc(Nc2ncc(F)c(Nc3ccc(OC)c(O)c3)n2)cc1O` [compound 725], the IC50 was not above 20 µM.
Same read-out and setting: then `Fc1cnc(Nc2ccc(Cl)c(C(F)(F)F)c2)nc1Nc1ccc(Cl)c(C(F)(F)F)c1` [compound 706], with more than 20 µM.
The same measure, in the same setting: then `Oc1ccc(Nc2ncc(F)c(Nc3ccc(O)cc3)n2)cc1` [compound 730], with not above 20 µM.
Still for that read-out and setting: then `CNC(=O)COc1ccc(Nc2ncc(F)c(Nc3ccc(OCC(=O)O)cc3)n2)cc1` [compound 734], with more than 20 µM; and `COC(=O)COc1ccc(Nc2ncc(F)c(Nc3ccc(OCC(=O)OC(C)(C)C)cc3)n2)cc1` [compound 738], with more than 20 µM.
Compound `CCOC(=O)COc1ccc(Nc2ncc(F)c(Nc3cccc(O)c3)n2)cc1` [compound 729] displayed an IC50 of more than 20 µM.
`CCOc1ccc(Nc2nc(Nc3ccc(OC)c(OC)c3)ncc2F)cc1` [compound 709] showed an IC50 of more than 20 µM.
Same read-out and setting: next, `COC(=O)COc1ccc(Nc2ncc(F)c(Nc3ccc(OCC(=O)OC)cc3)n2)cc1` [compound 723]: not above 20 µM; `Fc1cnc(Nc2ccc(Cl)cc2)nc1Nc1ccc(Cl)cc1` [compound 716]: more than 20 µM.
Compound `Fc1cc(Nc2ncc(F)c(Nc3ccc(C(F)(F)F)c(F)c3)n2)ccc1C(F)(F)F` [compound 703] returned an IC50 of more than 20 µM.
Same read-out and setting: then `CC(C)(C)OC(=O)COc1ccc(Nc2ncc(F)c(Nc3ccc(OCC(=O)OC(C)(C)C)cc3)n2)cc1` [compound 739], with more than 20 µM; and `CCc1ccc(Nc2ncc(F)c(Nc3ccc(CC)cc3)n2)cc1` [compound 722], with more than 20 µM.
On to `COc1ccc(Nc2ncc(F)c(Nc3cccc(O)c3)n2)cc1OC` [compound 712], for which the IC50 is more than 20 µM.
Same read-out and setting: next, `CCOc1ccc(Nc2nc(Nc3cccc(O)c3)ncc2F)cc1` [compound 714]: more than 20 µM; `Fc1cnc(Nc2cccc(OC(F)(F)F)c2)nc1Nc1cccc(OC(F)(F)F)c1` [compound 705]: more than 20 µM.
Still for that read-out and setting: next, `CNC(=O)COc1cccc(Nc2ncc(F)c(Nc3ccc(OC)c(Cl)c3)n2)c1` [compound 788]: not above 20 µM.
The same measure, in the same setting: then `COc1ccc(Nc2nc(Nc3cccc(O)c3)ncc2F)cc1OC` [compound 715], with not above 20 µM; and `COc1cc(Nc2ncc(F)c(Nc3cccc(O)c3)n2)cc(OC)c1OC` [compound 760], with more than 20 µM.

Staying with this experiment, now noted: IC50 class against A549 (lung) tumor cells.
Compound `COc1ccc(Nc2ncc(F)c(Nc3ccc4c(c3)OCCO4)n2)c(OC)c1` [compound 1045] gave a half-maximal inhibitory concentration (IC50) of more than 20 µM.
On the same count and under the same terms, then `C=CCNc1ncc(F)c(Nc2ccc3c(c2)OCCO3)n1` [compound 1037], with more than 20 µM.

Still in this experiment, the particulars now being: Table 5; in vitro antiproliferation, A549 (lung) cells.
Regarding `CC(=O)COc1cccc(Nc2ncc(F)c(Nc3ccc4c(c3)OCCO4)n2)c1` [compound 492], the IC50 was more than 20 µM.
The same measure, in the same setting: then `CCOc1ccc(Nc2ncc(F)c(Nc3ccc4c(c3)OCCO4)n2)cc1` [compound 478], with not above 20 µM.
Same read-out and setting: then `Fc1cnc(Nc2cccc(C(F)(F)F)c2)nc1Nc1ccc2c(c1)OCCO2` [compound 514], with more than 20 µM; and `COC(=O)COc1cccc(Nc2ncc(F)c(Nc3ccc4c(c3)OCCO4)n2)c1` [compound 586], with more than 20 µM; and `CN(C)C(=O)COc1cccc(Nc2ncc(F)c(Nc3ccc4c(c3)OCCO4)n2)c1` [compound 481], with more than 20 µM.
The same measure, in the same setting: then `Fc1ccc(Nc2ncc(F)c(Nc3ccc4c(c3)OCCO4)n2)cc1Cl` [compound 485], with more than 20 µM.
For `O=C(O)COc1ccc(Nc2ncc(F)c(Nc3ccc4c(c3)OCCO4)n2)cc1` [compound 490], the IC50 is more than 20 µM.
The same measure, in the same setting: next, `CNCCOc1cccc(Nc2ncc(F)c(Nc3ccc4c(c3)OCCO4)n2)c1` [compound 498]: more than 20 µM.
Same read-out and setting: next, `CCc1ccc(Nc2ncc(F)c(Nc3ccc4c(c3)OCCO4)n2)cc1` [compound 489]: more than 20 µM; `Fc1ccc(Nc2ncc(F)c(Nc3ccc4c(c3)OCCO4)n2)cc1` [compound 487]: more than 20 µM.
On the same count and under the same terms, then `OCCOc1ccc(Nc2ncc(F)c(Nc3ccc4c(c3)OCCO4)n2)cc1` [compound 587], with not above 20 µM; and `O=C(COc1cccc(Nc2ncc(F)c(Nc3ccc4c(c3)OCCO4)n2)c1)NC1CC1` [compound 520], with not above 20 µM.
Compound `O=C(COc1ccc(Nc2ncc(F)c(Nc3ccc4c(c3)OCCO4)n2)cc1)NCCO` [compound 474] came in with an IC50 of more than 20 µM.
On the same count and under the same terms, next, `Oc1cccc(Nc2ncc(F)c(Nc3ccc4c(c3)OCCO4)n2)c1` [compound 482]: more than 20 µM.

The experiment is the same for the next values; noted with them: Table 7; in vitro antiproliferation, A549 (lung) cells.
For `COC(=O)c1cc2cc(Nc3ncc(F)c(Nc4cccc(OC(C)C)c4)n3)ccc2o1` [compound 623], the half-inhibitory concentration (IC50) was more than 20 µM.
On to `COC(=O)c1cc2cc(Nc3ncc(F)c(Nc4ccc(C(C)(C)C)cc4)n3)ccc2o1` [compound 619], for which the half-inhibitory concentration (IC50) is more than 20 µM.
Still for that read-out and setting: next, `O=C(c1cc2cc(Nc3ncc(F)c(Nc4cccc(O)c4)n3)ccc2o1)N1CCOCC1` [compound 624]: more than 20 µM.
Same read-out and setting: then `COC(=O)c1cc2cc(Nc3ncc(F)c(Nc4ccc(OC(C)C)cc4)n3)ccc2o1` [compound 641], with more than 20 µM.
Still for that read-out and setting: then `COC(=O)c1cc2cc(Nc3ncc(F)c(Nc4ccc5c(c4)OCCO5)n3)ccc2o1` [compound 638], with more than 20 µM; and `CNC(=O)c1cc2cc(Nc3ncc(F)c(Nc4cccc(O)c4)n3)ccc2o1` [compound 627], with more than 20 µM; and `CNC(=O)c1cc2cc(Nc3ncc(F)c(Nc4ccc(C(C)(C)C)cc4)n3)ccc2o1` [compound 628], with more than 20 µM.
As to `CC(C)Oc1ccc(Nc2nc(Nc3ccc4oc(C(=O)N5CCCC5)cc4c3)ncc2F)cc1` [compound 640], the half-inhibitory concentration (IC50) is more than 20 µM.
Same read-out and setting: then `CNC(=O)c1cc2cc(Nc3ncc(F)c(Nc4cccc(C(C)(C)C)c4)n3)ccc2o1` [compound 675], with more than 20 µM.
Same read-out and setting: next, `O=C(O)c1cc2cc(Nc3ncc(F)c(Nc4cccc(O)c4)n3)ccc2[nH]1` [compound 621]: more than 20 µM; `CC(C)(C)c1ccc(Nc2nc(Nc3ccc4oc(C(=O)O)cc4c3)ncc2F)cc1` [compound 622]: more than 20 µM; `O=C(NCCO)c1cc2cc(Nc3ncc(F)c(Nc4cccc(O)c4)n3)ccc2o1` [compound 630]: more than 20 µM.

The experiment is the same for the next values; noted with them: in vitro antiproliferation, A549 (lung) cells; Table 4; compounds with no designated stereochemistry tested as racemate.
The compound `CC1(C)Oc2ccc(Nc3nc(Nc4cc(Cl)cc(Cl)c4)ncc3F)cc2NC1=O` [compound 308] came in with a concentration for half-maximal inhibition (IC50) not above 20 µM.

A word on the IC50: it is the concentration at which inhibition is half-maximal. Read a high IC50 as weaker potency.

The values are drawn from patent US8809341B2, “2,4-pyrimidinediamine compounds and uses as anti-proliferative agents” (Rigel Pharmaceuticals, Inc., priority 2003, dated 2014).
